{"source": "patent US20240115554A1", "about": "“METHODS FOR TREATING OBSTRUCTIVE HYPERTROPHIC CARDIOMYOPATHY” (Cytokinetics, Incorporated, priority 2022, published 2024)", "key": {"[1]": {"test_system": "patients with symptomatic oHCM", "assay": "Open-label extension: safety and tolerability", "type": "in vivo, human", "conditions": "for Patients with TEAE Leading to Dose Reduction / Patients with TEAE Leading to Drug Interruption / Patients with at Least One Related TEAE / Patients with at Least One Severe TEAE / Patients with at Least One TEAE / Patients with at Least One TESAE: open-label extension, preliminary safety", "description": "An open-label extension clinical trial of aficamten in patients with symptomatic oHCM was initiated.\nAn open-label extension clinical trial of aficamten in patients with symptomatic oHCM was initiated. The treatment duration is anticipated to be multiple years.\nSafety and tolerability are evaluated by (i) patient incidence of adverse events, (ii) patient incidence of serious adverse events, (iii) patient incidence of LVEF <50%."}, "[2]": {"assay": "Phase 1 plasma aficamten pharmacokinetics (SAD, MAD, CYP2D6-PM, food-effect cohorts)", "type": "in vivo, human", "conditions": "for CL/F: mean ± SD", "description": "CYP2D6 poor metabolizer cohort.\nCYP2D6 genotypes were determined at screening for all study participants; those identified as CYP2D6-PMs were excluded from the SAD and MAD cohorts but were invited to participate in the CYP2D6-PM cohort. The first individual in the CYP2D6-PM cohort was dosed after the SAD 25-mg cohort (FIG. 2). […] Nine participants were randomized (7:2) with a sentinel dosing group consisting of the first 2 participants treated.\nFood-effect cohort. […] Participants were randomized in a 1:1 ratio to 1 of 2 sequences: fasted/fed or fed/fasted.\nPharmacokinetic analyses. For all study groups, blood samples for PK assessment were obtained pre-dose, up to 12 times daily on day 1, and then at regular intervals throughout the study. Blood samples were collected according to the following schedule: SAD Cohorts: Day 1: pre-dose and 0.25, 0.5, 1, 1.5, 2, 2.5, 3, 4, 6, 8, 12, 16, 24, 36, 48, 72, 96, and 216 h post dose. […] CYPD6-PM Cohort: Day 1: pre-dose and 0.25, 0.5, 1, 1.5, 2, 2.5, 3, 4, 6, 8, 12, 16, 24, 36, 48, 72, 96, 216, 312, and 552 h post dose. Food-Effect Cohort: Day 1: pre-dose and 0.25, 0.5, 1, 1.5, 2, 2.5, 3, 4, 6, 8, 12, 16, 24, 36, 48, 72, 96, 144, and 216 h post dose. Standard non-compartmental methods were used to calculate PK parameters using Phoenix® WinNonlin® Version 7.0; actual sample collection times were utilized.\nFor the MAD cohort, the parameters were AUC24 and Cmax on day 1, plus AUC to the […] (AUCtau) and Cmax on day 14 or 17. The statistical linear relationship between the ln-transformed PK parameters and the ln-transformed dose was verified by including the quadratic (ln Dose)^2 and cubic (ln Dose)^3 effects. […] The dose-proportionality analysis was performed using SAS® PROC MIXED.\nAn analysis of variance (ANOVA) model was conducted separately for each dose level; day was included as the fixed effect. Helmert contrasts were developed such that each time-point was compared with the mean of the subsequent time-points."}}, "note": "Entries after “also recorded” stand apart in the source; their conditions may differ."}
{"molecule": "CCc1nc(-c2ccc3c(c2)CC[C@H]3NC(=O)c2cnn(C)c2)no1", "note": "[aficamten, (R)—N-(5-(5-ethyl-1,2,4-oxadiazol-3-yl)-2,3-dihydro-1H-inden-1-yl)-1-methyl-1H-pyrazole-4-carboxamide]", "values": [{"measurement": "safety events deemed related to aficamten therapy by investigators", "setting": "[1]; BTR/W analysis", "result": "no safety events deemed related to aficamten therapy"}, {"measurement": "LVEF during recurrent alcohol induced atrial fibrillation", "setting": "[1]; one patient on 15 mg", "result": 47, "unit": "%"}, {"measurement": "events of LVEF <50% attributed to aficamten", "setting": "[1]; open label extension", "result": "no events of LVEF <50% attributed to aficamten; also recorded: no patients experienced aficamten related reduction in LVEF <50%; also recorded: no instances of systolic dysfunction (LVEF <50%) attributed to aficamten"}, {"measurement": "tolerability", "setting": "[1]; open label extension, Example 3a", "result": "well tolerated"}, {"measurement": "Patients with TEAE Leading to Dose Reduction", "setting": "[1]; N = 38", "result": "(5%)"}, {"measurement": "Patients with TEAE Leading to Drug Interruption", "setting": "[1]; N = 38", "result": "(3%)"}, {"measurement": "Patients with at Least One Related TEAE", "setting": "[1]; N = 38", "result": "(21%)"}, {"measurement": "Patients with at Least One Severe TEAE", "setting": "[1]; N = 38", "result": "(3%)"}, {"measurement": "Patients with at Least One TEAE", "setting": "[1]; N = 38", "result": "(74%)"}, {"measurement": "Patients with at Least One TESAE", "setting": "[1]; N = 38", "result": "(5%)"}, {"measurement": "Patients with TEAE Leading to Dose Reduction", "setting": "[1]; N = 38, number of patients", "result": 2}, {"measurement": "Patients with TEAE Leading to Drug Interruption", "setting": "[1]; N = 38, number of patients", "result": 1}, {"measurement": "Patients with at Least One Related TEAE", "setting": "[1]; N = 38, number of patients", "result": 8}, {"measurement": "Patients with at Least One Severe TEAE", "setting": "[1]; N = 38, number of patients", "result": 1}, {"measurement": "Patients with at Least One TEAE", "setting": "[1]; N = 38, number of patients", "result": 28}, {"measurement": "Patients with at Least One TESAE", "setting": "[1]; N = 38, number of patients", "result": 2}, {"measurement": "impact of food and CYP2D6-PM phenotype on pharmacokinetics", "setting": "[2]; 10 mg single dose", "result": "Neither food nor CYP2D6-PM phenotype had a clinically meaningful impact on pharmacokinetics"}, {"measurement": "steady state achieved by the end of day", "setting": "[2]; 5-mg and 7.5-mg doses once daily", "result": 12, "unit": "days"}, {"measurement": "steady state achieved by the end of day", "setting": "[2]; 10-mg dose once daily", "result": 10, "unit": "days"}, {"measurement": "CL/F", "setting": "[2]; CYP2D6 Poor Metabolizers, 10 mg single dose", "result": "3.6 ± 1.4", "unit": "L/h"}, {"measurement": "maximum time to maximum observed concentration across all participants", "setting": "[2]; SAD cohorts", "result": 4.0, "unit": "h"}, {"measurement": "increase of Cmax when taken with food", "setting": "[2]; food-effect cohort, 10 mg", "result": "approximately 30%"}, {"measurement": "CL/F", "setting": "[2]; food-effect cohort, 10 mg, Fasted (n = 4)", "result": "2.8 ± 0.6", "unit": "L/h"}, {"measurement": "CL/F", "setting": "[2]; food-effect cohort, 10 mg, Fed (n = 7)", "result": "3.1 ± 0.9", "unit": "L/h"}, {"measurement": "time within which steady state is achieved", "setting": "[2]; once-daily dosing", "result": "≤ 2", "unit": "weeks"}, {"measurement": "CL/F", "setting": "[2]; single oral dose 3 mg", "result": "4.2 ± 3.1", "unit": "L/h"}, {"measurement": "CL/F", "setting": "[2]; single oral dose 10 mg", "result": "3.0 ± 0.7", "unit": "L/h"}, {"measurement": "CL/F", "setting": "[2]; single oral dose 25 mg", "result": "3.6 ± 0.5", "unit": "L/h"}, {"measurement": "CL/F", "setting": "[2]; single oral dose 40 mg", "result": "3.4 ± 0.6", "unit": "L/h"}, {"measurement": "CL/F", "setting": "[2]; single oral dose 50 mg", "result": "3.8 ± 1.1", "unit": "L/h"}, {"measurement": "dose proportionality of plasma concentrations / exposure", "setting": "[2]; single oral doses 1 mg to 50 mg", "result": "increased in a dose-proportional manner; also recorded: linear kinetics"}]}
